Test results: patent US11382328B2, “Rapid drug discovery methods for pathogen inactivation” (priority 2019, dated 2022)

System: E. coli strain W3110
Assay: Synergy assays: Biolog chemical sensitivity panels with Group IB metal, coefficient of drug interaction (CDI) from relative growth
Type: cell-based
Conditions: for CDI (coefficient of drug interaction), copper mixed with biocide: Copper (mM) section; for CDI (coefficient of drug interaction): Gold section of Table 5; for CDI (coefficient of drug interaction), silver + biocide: E. coli

protamine sulfate
CDI (coefficient of drug interaction), copper mixed with biocide (1st of 3 copper concentrations (value not shown), 1st of four biocide concentrations): 0.79 | CDI (coefficient of drug interaction), copper mixed with biocide (1st of 3 copper concentrations (value not shown), 2nd of four biocide concentrations): Tox | CDI (coefficient of drug interaction), copper mixed with biocide (1st of 3 copper concentrations (value not shown), 3rd of four biocide concentrations): Tox | CDI (coefficient of drug interaction), copper mixed with biocide (1st of 3 copper concentrations (value not shown), 4th of four biocide concentrations): Tox | CDI (coefficient of drug interaction), copper mixed with biocide (2nd of 3 copper concentrations (value not shown), 1st of four biocide concentrations): 1.09 | CDI (coefficient of drug interaction), copper mixed with biocide (2nd of 3 copper concentrations (value not shown), 2nd of four biocide concentrations): 1.26 | CDI (coefficient of drug interaction), copper mixed with biocide (2nd of 3 copper concentrations (value not shown), 3rd of four biocide concentrations): Tox | CDI (coefficient of drug interaction), copper mixed with biocide (2nd of 3 copper concentrations (value not shown), 4th of four biocide concentrations): Tox | CDI (coefficient of drug interaction), copper mixed with biocide (3rd of 3 copper concentrations (value not shown), 1st of four biocide concentrations): 0.56 | CDI (coefficient of drug interaction), copper mixed with biocide (3rd of 3 copper concentrations (value not shown), 2nd of four biocide concentrations): Tox | CDI (coefficient of drug interaction), copper mixed with biocide (3rd of 3 copper concentrations (value not shown), 3rd of four biocide concentrations): Tox | CDI (coefficient of drug interaction), copper mixed with biocide (3rd of 3 copper concentrations (value not shown), 4th of four biocide concentrations): Tox | CDI (coefficient of drug interaction) (first of three gold concentrations (μM, value not given), biocide concentration 2 of 4): 0.96 | CDI (coefficient of drug interaction) (first of three gold concentrations (μM, value not given), biocide concentration 3 of 4): 0.49 | CDI (coefficient of drug interaction) (first of three gold concentrations (μM, value not given), biocide concentration 4 of 4): Tox | CDI (coefficient of drug interaction) (second of three gold concentrations (μM, value not given), biocide concentration 1 of 4): 0.99 | CDI (coefficient of drug interaction) (second of three gold concentrations (μM, value not given), biocide concentration 2 of 4): 0.94 | CDI (coefficient of drug interaction) (second of three gold concentrations (μM, value not given), biocide concentration 3 of 4): 2.22 | CDI (coefficient of drug interaction) (second of three gold concentrations (μM, value not given), biocide concentration 4 of 4): Tox | CDI (coefficient of drug interaction) (third of three gold concentrations (μM, value not given), biocide concentration 1 of 4): 0.92 | CDI (coefficient of drug interaction) (third of three gold concentrations (μM, value not given), biocide concentration 2 of 4): 1.09 | CDI (coefficient of drug interaction) (third of three gold concentrations (μM, value not given), biocide concentration 3 of 4): 1.56 | CDI (coefficient of drug interaction) (third of three gold concentrations (μM, value not given), biocide concentration 4 of 4): Tox | CDI (coefficient of drug interaction), silver + biocide (Silver 0.5 μM, 1st of four biocide concentrations): 1.10 | CDI (coefficient of drug interaction), silver + biocide (Silver 0.5 μM, 2nd of four biocide concentrations): 1.15 | CDI (coefficient of drug interaction), silver + biocide (Silver 0.5 μM, 3rd of four biocide concentrations): Tox | CDI (coefficient of drug interaction), silver + biocide (Silver 0.5 μM, 4th of four biocide concentrations): Tox | CDI (coefficient of drug interaction), silver + biocide (Silver 1.0 μM, 1st of four biocide concentrations): 0.95 | CDI (coefficient of drug interaction), silver + biocide (Silver 1.0 μM, 2nd of four biocide concentrations): 1.00 | CDI (coefficient of drug interaction), silver + biocide (Silver 1.0 μM, 3rd of four biocide concentrations): Tox | CDI (coefficient of drug interaction), silver + biocide (Silver 1.0 μM, 4th of four biocide concentrations): Tox | CDI (coefficient of drug interaction), silver + biocide (Silver 5.0 μM, 1st of four biocide concentrations): 0.84 | CDI (coefficient of drug interaction), silver + biocide (Silver 5.0 μM, 2nd of four biocide concentrations): 0.90 | CDI (coefficient of drug interaction), silver + biocide (Silver 5.0 μM, 3rd of four biocide concentrations): Tox | CDI (coefficient of drug interaction), silver + biocide (Silver 5.0 μM, 4th of four biocide concentrations): Tox
